Experimental data from patent publication US20070207123A1, “Amelioration of effects of cigarette smoke” (priority 2002, published 2007).
Marks after values point to notes of the source that are not given here.

Key:
[1] = tested on: mice exposed to side-stream cigarette smoke (SSCS); test: Dynamic lung compliance after side-stream cigarette smoke (SSCS) exposure; assay type: in vivo, mouse (C57B1/6)
Protocol: C57B1/6 (B6, Jackson Labs) mice were utilized. Mice were used at an age of 8-12 weeks, 25-35 grams in weight. Female animals only were utilized. All animals were housed in the animal facility of the Dept. of Animal Resources at The University of Arizona Health Sciences Center. Animals were used in AAALAC-approved protocols.
Aerosolized exposures were performed using a DeVilbiss Ultra-Neb nebulizer (Model 099HD, Somerset, Pa.). Animals were exposed in a nose-only presentation while held in individual subject loading tubes similarly to that previously described (12). The tubes were nose cone-fitted to receiving adapters that originated from the common exposure chamber (volume 0.0027 m3, IN-TOX, Albuquerque, N. Mex.). […] Exposure concentration was determined by a seven-stage cascade impactor (IN-TOX) from changes in plate weights and measured immediately after each exposure. […]
Mice were anesthetized with ketamine hydrochloride (80 mg/kg), xylazine (10 mg/kg) and acepromazine maleate (3 mg/kg). […] Airflow was measured with a pneumotachograph (Fleisch #0000, Instrumentation Associates, New York, N.Y.) that was coupled to a differential pressure transducer (Validyne, Northridge, Calif.). […] These lung function parameters were measured with a modified PEDS-LAB (Medical Associated Services, Hatfield, Pa.) pulmonary function system. […]

[2] = tested on: airway epithelium and basement membranes of SSCS-exposed mice; test: Electron microscopy of lung airway after SSCS exposure; assay type: in vivo, mouse (C57B1/6)
Protocol: Mice were exposed to side-stream cigarette smoke as previously described (23). […] The cigarette was lit, placed upright in a ring clamp and the smoke was directed into a funnel for distribution through the chamber (at a concentration designed to simulate human exposure in a smokey bar).
The Substance P (SP) agonist, [Sar^9, Met (O2)^11-substance P] was obtained from Sigma Chemicals (St. Louis, Mo.) and used after reconstitution in sterile saline.
(§1) Mice were treated with the SP analog [Sar^9, Met (O2)^11-substance P] for 15 minutes at the indicated doses following the cigarette smoke exposures as previously described (7, 10). Other than the genetically engineered SP experiments, all SP treatments were by the aerosol route using the previously described exposure chambers.
The lungs were prepared for morphometric study by injection of half-strength Kamovsky's Fluid into a major artery at a constant pressure of 20 cm H2O for 1 h at room temperature. The fixed tissue was then tied off at the artery with #4 suture. The Pathology Core Laboratories of the Southwestern Environmental Health Science Center evaluated the fixed tissue for pathological changes. The fixed tissues were sliced, dehydrated and post-fixed in osmium tetroxide, dehydrated and embedded in Epon-Araldite for high-resolution electron microscopy. Thin sections were cut from the embedded tissue with a diamond knife, mounted on 200 um copper mesh grids, and doubly stained with lead citrate and uranyl acetate. The tissue was viewed and photographed using a Phillips CM12 electron microscope (maximum magnification of 19,000×) (21).
Animals were exposed to SSCS for 45 min/day for 7 days from 1R4 standard research cigarettes (cigarette is lit and then placed upright in a ring clamp and the smoke is directed into a funnel for distribution through our exposure chamber) at a concentration designed to simulate a “smokey bar” scenario for human exposure to sidestream cigarette smoke. The sidestream cigarette smoke is considered highly toxic, even compared to the mainstream cigarette smoke that a human smoker inhales, due to the low combustion temperature of the smoldering cigarette. Subsequent to the exposures, some mice were treated with 1 uM-aerosolized SP for 15 minutes. At the end of one week the animals were sacrificed and lungs removed for electron microscopic analysis. […] The structure of the airway is characterized by airway epithelial cells anchored to a basement membrane. Another basement membrane serves as the anchor for the airway endothelial cells. The SSCS electron micrograph is characterized by swelling in both basement membrane areas of the airway structure and loss of cilia on the surface of the airway epithelium. […]

[3] = tested on: mononuclear cells of SSCS-exposed mice; test: Micronuclei formation in bone marrow and peripheral blood cells after SSCS exposure; assay type: in vivo, mouse (C57B1/6)
Protocol: Determination of micronuclei formation was made as described by Fenech (3). Briefly, animals were exposed to cigarette smoke ±SP treatment. Viable mononuclear cells were isolated from peripheral blood and bone marrow, stimulated with the mitogen PHA for 44 h, and treated with cytochalasin B for 28 h. Cytocentrifuge preparations were made, cells fixed and then analyzed at 1000× for micronuclei formation. At least 1000 cells were analyzed for each preparation.
Exposure to cigarette smoke results in genetic changes that can cause malignant cellular transformation (21, 22). Animals were exposed to SSCS as described above and sacrificed after 7 days. Viable mononuclear cells were isolated from peripheral blood and bone marrow, stimulated with the mitogen PHA for 44 h, and treated with cytochalasin B for 28 h. Cytocentrifuge preparations were made, cells fixed and then analyzed at 1000× for micronuclei formation. At least 1000 cells were analyzed from each preparation. […] Micronuclei formation in combination with damage of lung epithelia can result on pathological conditions such as emphysema and cancer (21).

[4] = tested on: B16 tumor cells; test: Experimental lung metastasis model, aerosolized SP; assay type: in vivo, mouse (B6); conditions: for #Tumors/2 Lungs: mean +/− SD; for % Change in #Tumors/2 Lungs: vs B16 alone
Protocol: as §1
B16 tumor cells (H-2^b) were obtained from the American Type Cell Collection (ATCC) and grown in DMEM media (Sigma, St. Louis, Mo.) supplemented with 10% fetal bovine serum (Hyclone, Colo.), antibiotics, nonessential amino acids and glutamine as. Cells in log growth were used for all experiments. An experimental lung metastasis model was utilized in which B16 tumor cells (0.5×10^6 cells in 100 ul saline) were injected intravenously into syngeneic B6 mice. At 7-10 days post-injection the animals were sacrificed and the visually prominent (black) tumors on the surface of both lungs were enumerated.
The Student's t-test was utilized to analyze the data presented. A p value of 0.05 (or lower) was used as a minimally significant difference.

[5] = tested on: pulmonary alveolar macrophages (PAM); test: TNF-alpha secretion by pulmonary alveolar macrophages (ELISA); assay type: cell-based, rat (Fischer 344); conditions: overnight incubation, baseline 8.3 pg/ml per 1 × 10^6 cells, N 5
Protocol: Rat pulmonary alveolar macrophages (PAM) were isolated from pathogen-free male Fischer 344 rats (Harlan, Indianapolis, Ind.). The rats were anesthetized intramuscularly with ketamine HCL (80 mg/kg; Parke-Davis, Morris Plains, N.J.), xylazine (10 mg/kg; Mobay Corp., Shawnee, Kans.) and acepromazine maleate (3 mg/kg; Fermenta Animal Health Co., Kansas City, Mo.). A tracheostomy was performed, with the insertion of a Teflon #18 gauge catheter (Critikon, Tampa Bay, Fla.) as an endotracheal tube. The rats were killed by exsanguination of the abdominal aorta. The lungs were removed and lavaged with 3 ml aliquots of normal sterile saline warmed to 37 C for a total of 6 washes. The lavaged total cell numbers and PAM differentials were determined from a 0.2 ml sample by hemocytometer counting and cytocentrifuge preparation stained with Diff-Quik (Dade Diagnostics, Aguada, Puerto Rico), respectively. The remaining lavaged fluid was pooled and centrifuged at 400×g for 10 minutes to obtain a cell pellet. […] Cells were then counted using a standard hemocytometer and placed in 12 well plates at a density of 10^4 cells/ml. […]
TNF-alpha secretion by pulmonary alveolar macrophages (PAM) was measured by ELISA (R&D Systems, Minneapolis, Minn.) according to the manufacturer's instructions (25).

[6] = SSCS 45 min/day then 15 min aerosol dose, FIG. 2
[7] = SSCS + SP, 7 days, mean +/− SD, N 6

Substance: [Sar^9, Met (O2)^11-substance P] [SP]
- alterations in lung compliance due to SSCS ([1]; SP immediately after the smoke exposures): prevented/reversed
- Dynamic Lung Compliance ([1]; SSCS 45 min/day for 1 week, then 1 uM aerosolized SP for 15 min, mean +/− SEM, N 15): 2.2 (0.02) ml · cm H2O^−1 · Kg^−1
- deterioration of the lung epithelium / basement membrane (electron microscopy) ([2]; SSCS 45 min/day 7 days, 1 uM aerosolized SP 15 min): attenuated such deterioration of the lung epithelium
- airway basement membranes (electron micrograph) [2, 6]: normal appearance of airway basement membranes
- airway cilia (electron micrograph) [2, 6]: normal cilia
- cell membrane between airway cells (electron micrograph) ([2]; SSCS 45 min/day then 15 min aerosol dose, FIG. 3): identifiable cell membrane between airway cells
- levels of micronuclei formation versus control animals ([3]; SP immediately after SSCS exposure, blood and bone marrow cells): comparable to control animals
- Percent Micronuclei, Blood [3, 7]: 0.01 +/− 0.01* Percent
- Percent Micronuclei, Bone Marrow [3, 7]: 0 +/− 0* Percent
- inhibition of lung tumor formation ([4]; Experiments 1 to 3, aerosolized SP at the time of or after tumor induction): 58-97%
- #Tumors/2 Lungs ([4]; Expt. 1: aerosolized SP at the time of tumor induction, N 4): 39 +/− 4*
- % Change in #Tumors/2 Lungs ([4]; Expt. 1: aerosolized SP at the time of tumor induction): −63%
- #Tumors/2 Lungs ([4]; Expt. 2: aerosolized SP at day 7 following tumor induction, N 4): 1 +/− 0.3*
- % Change in #Tumors/2 Lungs ([4]; Expt. 2: aerosolized SP at day 7 following tumor induction): −97%
- #Tumors/2 Lungs ([4]; Expt. 3: aerosolized SP at day 7 following tumor induction, N 8): 102 +/− 32*
- % Change in #Tumors/2 Lungs ([4]; Expt. 3: aerosolized SP at day 7 following tumor induction): −58%
- Fold-Increase TNFa ([5]; 8 nM SP): 3.2X
- Fold-Increase TNFa ([5]; 1 uM SP): 5.4X
